Results on six compounds are retold here after paper PMC12455078, “Synthesis, pharmacokinetic studies, and metabolite analysis of meridianin C in rats using a validated ultra high performance liquid chromatography-tandem mass spectrometry method” (Frontiers in Pharmacology, 2025).

Data set [1] can be described thus: Pharmacokinetics of MC and its metabolites in rat plasma after a single oral dose of MC (UHPLC-MS/MS). It is filed as in vivo, Sprague Dawley rats. The conditions noted are these: for Concentration in plasma samples relative to limit of quantification / AUC0–48h fold less than that of MC: single oral 100 mg/kg MC; for Tmax / half-life / Cmax / AUC(0-t): male, Sprague Dawley, single oral (intragastric) 100 mg/kg MC; for Tmax / half-life: n = 6; for Cmax: n = 6, metabolites quantified with the MC calibration curve; for AUC(0-t): n = 6, non-compartmental, metabolites quantified with the MC calibration curve, read-out: AUC0–48h. On the procedure: Sprague Dawley rats (male, 220–250 g) were purchased from the SPF Biotechnology Co., Ltd. (Beijing, China). Animals were acclimated under controlled conditions (temperature 22 °C ± 2 °C, humidity 50%–60%, 12 h light cycle) with unlimited fodder and water access for 7 days. The animal experiments were approved by the Animal Experiment Ethics Review Committee of Jiangsu Vocational College of Medicine, Yancheng, China (LLSQ-2021-031106).
After fasting overnight, six rats were orally administered 100 mg/kg MC suspended in 0.5% carboxymethyl cellulose sodium solution (10.0 mg/mL). Blood samples (about 300 μL) were collected into heparinized polythene tubes from the suborbital vein at 0, 0.25, 0.5, 1, 2, 3, 4, 8, 12, 24, 36 and 48 h after administration. All samples were immediately centrifuged at 6,125 g for 5 min at 4 °C to acquire plasma. The plasma samples were preserved at − 80 °C until further analysis.
For the measurement of the concentrations of MC and its metabolites, three times volume of methanol, containing 20 µL IS (puerarin, 2,160.0 ng/mL), were added to 100 µL plasma samples to precipitate protein. After vortexing for 2 min, the mixtures were centrifuged at 6,125 g for 10 min at 4 °C. The obtained supernatants were transferred to fresh tubes and allowed to be dried at room temperature by a nitrogen blowing instrument. Then, the remaining residues were re-dissolved with 100 µL methanol–water (80:20, v/v). Following centrifugation at 16,173 g for 10 min, the supernatants were transferred and used for UHPLC/[…] assessment. The injection volume of each sample was 1 μL.
The UHPLC-MS system comprised of an Acquity UPLC system (Waters, Milford, United States) and Waters TQD tandem mass spectrometer equipped with an electrospray ionization (ESI) source. A Waters ACQUITY BEH C18 column (100 × 2.1 mm, 1.7 μm, Waters, Milford, United States) was used for the chromatography separation. The column temperature was set to 40 °C. The mobile phase was composed of 0.1% formic acid in water (A) and 0.1% formic acid in acetonitrile (B) with a fixed flow rate at 0.4 mL/min. A gradient elution program was used as follows: 0–1.5 min, 5%–20% B; 1.5–5 min, 20%–30% B; 5–7 min, 30%–95% B; 7–9 min, 95% B; 9–11 min, 95% B.
The MS tune parameters were set as mentioned below. The desolvation of the source temperatures was set at 500 °C. The flow rate of nebulization gas was 650 L/h. The capillary voltage was set at 2.8 kV in the positive ionization mode. The cone voltages were maintained at 35 V for all the tested ingredients. All data were obtained via the multiple reaction monitoring (MRM) ion mode. The range of m/z for the data collection was set at 100–1,500 Da. Transitions, cone voltage and a collision energy of MC and its metabolites were optimized (Table 2). The mass spectrum of MC and the chemical structures of its MS/MS fragments is shown in Figure 4, and The mass spectrum of puerarin and the chemical structures of its MS/MS fragments is shown in Figure 5. MassLynx™ software version 4.1 was used for data acquisition and TargetLynx™ (Waters, Milford, MA, United States) was applied to quantitation.
The concentrations of MC in the collected plasma samples were quantified by the established calibration curve based on peak areas of corresponding components. Owing to the lack of corresponding standards, calibration curves for the metabolites were not established. It has been reported that the concentrations of the metabolites could be quantified according to calibration curve of parent drug. This is possible due to the structural similarity of their parent nucleus ([Zhang et al., 2015]). Therefore, in this study, the concentrations of the metabolites were calculated via the calibration curve of MC. The main pharmacokinetic parameters of MC and its metabolites were calculated via a non-compartmental model with the pharmacokinetic software, DAS (ver. 2.0, Chinese Pharmacology Association, Shanghai, China). […]

Details of data set [2]: method as in Hasa et al., 2013. The conditions noted are these: ref Hasa et al., 2013; cited from earlier work.
Data set [3] can be described thus: Stability of MC in rat plasma QC samples under storage conditions. It is filed as in vitro ADME. The conditions noted are these: for Stability (re, %) 20 °C–25 °C/24 h / Stability (re, %) −20 °C/30 days / Stability (re, %) Freeze-thaw (3 cycles): n = 3; for Stability (re, %) Freeze-thaw (3 cycles): −20 °C to ambient temperature. The method, then: MC, accurately weighted, was firstly dissolved in methanol to acquire the standard stock solutions (250 μg/mL). A set of standard working solutions (25,000.0 ng/mL, 12,500.0 ng/mL, 2,500.0 ng/mL, 1,250.0 ng/mL, 625.0 ng/mL, 250.0 ng/mL, 125.0 ng/mL, 31.25 ng/mL) were obtained by diluting the stock solutions with methanol. An aliquot of 20 µL of these standard working solutions was then spiked into 1.5 mL polythene tubes and the solvent of methanol was evaporated at room temperature. Afterwards, the calibration standards (5,000.0 ng/mL, 2,500.0 ng/mL, 500.0 ng/mL, 250.0 ng/mL, 125.0 ng/mL, 50.0 ng/mL, 25.0 ng/mL, 6.25 ng/mL) were obtained by adding blank plasma (100 µL) into the tubes and fully mixing. The preparation method of quality control samples (QCs, 25.0 ng/mL, 1,250.0 ng/mL, 4,000.0 ng/mL) was identical with that of the calibration standards. All solutions were stored at 4 °C until further use.
All method validation procedures were performed strictly in accordance with the US FDA Guidance for Industry on Bioanalytical Method Validation ([FDA, 2018]). The assessment of selectivity was performed via comparing chromatograms among blank rat plasma (six different batches) and rat plasma spiked with MC and IS. The evaluation of linearity was carried out using weighted (1/x^2) least-squares analysis of two sets of calibration standards. Three different concentrations of Quality Check: QCs (n = 6) standards were used and detected on three different days to evaluate the intra-day and inter-day precision and the accuracy. Similarly, matrix effect and extraction recovery were assessed using three different concentrations of QCs (n = 6). The matrix effect was evaluated via calculating the peak area ratio of MC in post-spiked QCs and the solvent-substituted samples with same concentration. The extraction recovery was assessed via calculating the peak area ratio of MC in pre-spiked and post-spiked QCs. The stability of MC was examined using three concentrations of QCs (n = 3) under three different storage conditions, including freeze-thaw stability (three cycles from −20 °C to ambient temperature), short-term stability (storage at 20 °C–25 °C for 24 h), and long-term stability (storage at −20 °C for 30 days).
The stability was estimated by analyzing QCs (25.0, 1,250.0, and 4,000.0 ng/mL) after storing in three different conditions: three freeze-thaw cycles (−20 °C to ambient temperature), 20 °C–25 for 24 h, and - 20 °C for 30 days. As presented in Table 5, the deviations in the stabilities of MC ranged from - 8.5% to 13.5% under the three different storage conditions.

Consider `ONc1nccc(-c2cn(O)c3ccc(Br)cc23)n1` [M8], for which, in data set [1], the “Concentration in plasma samples relative to limit of quantification” value is on record as “lower than the limit of quantification”.
A word on the Tmax: it is the time from dosing to the highest level. In general, half-life refers to the time needed for the level to fall by half in the phase considered. Usually Cmax stands for the peak of the concentration-time curve. `Nc1nccc(-c2cn(OS(=O)(=O)O)c3ccc(Br)cc23)n1` [M2]: in data set [1], the time of peak concentration (Tmax) was 0.5 ± 0.27 h, the half-life was 4.4 ± 2.7 h, the Cmax turned out to be 6.4 ± 2 µM and the AUC(0-t) was found to be 20.9 ± 8.5 µM·h. In addition, the “AUC0–48h fold less than that of MC” value in data set [1] amounted to 11.1 fold.
Turning to `Nc1nccc(-c2cn(O)c3ccc(Br)cc23)n1` [M3], the “Concentration in plasma samples relative to limit of quantification” value in data set [1] is “lower than the limit of quantification”.
As for `CC[C@]12CCCN3CCc4c(n(c5ccccc45)[C@@](O)(C(=O)OC)C1)[C@@H]32` [vincamine], the Bioavailability entry in data set [2] was “low bioavailability”.
Take `O=S(=O)(O)ONc1nccc(-c2c[nH]c3ccc(Br)cc23)n1` [M11]: in data set [1], the Tmax was determined as 0.88 ± 0.63 h, the half-life was 3.4 ± 2.2 h, the Cmax is 1.6 ± 0.6 µM and the AUC(0-t) was determined as 4 ± 1.1 µM·h. The “AUC0–48h fold less than that of MC” value in data set [1] turned out to be 58.7 fold.
`Nc1nccc(-c2c[nH]c3ccc(Br)cc23)n1` [MC, Meridianin C]: in data set [3] (rat plasma, 25.0 ng/mL), the “Stability (re, %) 20 °C–25 °C/24 h” value is 12.5%; the “Stability (re, %) −20 °C/30 days” value is reported as 10.6%; the “Stability (re, %) Freeze-thaw (3 cycles)” value turned out to be 13.5%. Further, in data set [3] (rat plasma, 1,250.0 ng/mL), the “Stability (re, %) 20 °C–25 °C/24 h” value was 7.9%; the “Stability (re, %) −20 °C/30 days” value came out at 5.2%; the “Stability (re, %) Freeze-thaw (3 cycles)” value was found to be 12.6%. Moreover, in data set [3] (rat plasma, 4,000.0 ng/mL), the “Stability (re, %) 20 °C–25 °C/24 h” value was −6.8%; the “Stability (re, %) −20 °C/30 days” value is −8.5%; the “Stability (re, %) Freeze-thaw (3 cycles)” value turned out to be 9.3%. Also, the “Stability in rat plasma (in words)” value in data set [3] (three freeze-thaw cycles, 20 °C–25 °C for 24 h, −20 °C for 30 days) is recorded as “stable”. Besides, in data set [1], the time to peak (Tmax) came out at 0.75 ± 0.27 h, the half-life was 17.7 ± 14.1 h, the Cmax came to 44.8 ± 7 µM and the AUC(0-t) was 232 ± 85.9 µM·h.
